The values that follow come from patent US10538681B2, “Aqueous ink for ink jet recording” (Seiko Epson Corporation, priority 2017, dated 2020).

The structures appear in SMILES notation.

One data set in a line: water-octanol distribution coefficient (log P value). The conditions noted are these: octanol/water; value defined by OECD Test Guideline 107. Type of data set: physicochemical. From the text: The higher the log P value, the higher the hydrophobicity, and the lower the log P value, the higher the hydrophilicity.
By logP is commonly meant a log measure of how a compound divides between an organic and an aqueous phase. `CC(C)CCOCC(O)CO` (stereo not drawn) [3-isopentyloxy-1,2 propanediol] yielded a logP of 0.64.

For `CC(C)CCC(C)(O)C#CC(C)(O)CCC(C)C` (stereo not drawn) [Surfynol DF 110 D, 2,5,8,11-tetramethyl-6-dodecyne-5,8-diol], the logP came to 4.18.

With `C=C(C)C(=O)OCC(O)CO` (stereo not drawn) [glycerin 1-methacrylate], the logP is -0.12.

Still in this data set, the particulars now being: value defined by OECD Test Guideline 107.
As for `CCCCC(O)CO` (stereo not drawn) [1,2-hexanediol], the “water-octanol distribution coefficient (log P)” value amounted to 0.7.

Take `CCCC(=O)OCC(O)COC(=O)CCC` [1,3-dibutyrin]: the “water-octanol distribution coefficient (log P)” value is listed as 1.59. Still for that read-out and setting: the value for `CCCCC(CC)C(=O)OCC(O)CO` (stereo not drawn) [2-ethylhexanoate 2,3-dihydroxypropyl] was 1.73; that for `CCCCCCCC(O)CCCC(=O)OCC(O)CO` (stereo not drawn) [5-hydroxydodecanoate 2,3-dihydroxypropyl] was 2.15. `CCCC(=O)OCC(O)CO` (stereo not drawn) [Example 1-butyrine, 1-butyrine]: the “water-octanol distribution coefficient (log P)” value is −0.21.

As to `CCCCCC(=O)OCC(O)CO` (stereo not drawn) [α-monocaproin], the “water-octanol distribution coefficient (log P)” value worked out at 0.85.
